Data on 39 compounds can be found in patent US10399933B2, “Inhibitors of indoleamine-2,3-dioxygenase for the treatment of cancer” (BRISTOL-MYERS SQUIBB COMPANY, priority 2015, dated 2019).

Chain of human IDO1 (P14902 whole entry): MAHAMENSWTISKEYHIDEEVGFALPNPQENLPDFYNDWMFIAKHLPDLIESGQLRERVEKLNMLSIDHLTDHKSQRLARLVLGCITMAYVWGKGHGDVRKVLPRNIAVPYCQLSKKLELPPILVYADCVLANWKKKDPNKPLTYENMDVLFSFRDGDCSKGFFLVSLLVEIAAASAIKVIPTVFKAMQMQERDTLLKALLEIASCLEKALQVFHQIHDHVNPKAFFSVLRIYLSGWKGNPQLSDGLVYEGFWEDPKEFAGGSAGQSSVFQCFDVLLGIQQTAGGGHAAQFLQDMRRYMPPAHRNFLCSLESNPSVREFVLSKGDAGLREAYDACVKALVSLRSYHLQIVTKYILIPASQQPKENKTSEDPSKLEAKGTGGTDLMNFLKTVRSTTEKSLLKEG

The target of the experiment is human IDO1 (Homo sapiens, UniProt P14902). The experiment is described as follows: Human IDO-1 inhibitory activity in Hela cells (interferon-gamma stimulated). The experiment is classed as cell-based. Details: endogenous in cells; host or cells: HeLa cells stimulated with interferon-gamma. The following applies: 18 hours, unstimulated wells = 100% inhibition. The procedure:
HeLa cells were seeded at 20,000 cells per 30 μL per well with RPMI/phenol red free media containing 10% FBS in a 384-well tissue culture plate (black with clear bottoms). 50 nL of compound was added to cells and incubated at 37° C. for one hour. 20 μL of the recombinant human Interferon-gamma (R&D System, Cat. #285-IF, at final concentration of 10 ng/ml) or recombinant murine Interferon-gamma (PEPROTECH® Inc., Cat. #315-05, final concentration of 5 ng/ml) was added to activate IDO signaling. The cells were incubated for 18 hours in 37° C. incubator with 5% CO2.
Compound treatment was stopped by adding 5 μl trichloroacetic acid to a final concentration of 3%. Subsequently, the cell plate was further incubated at 50° C. for 30 minute. An equal volume supernatant (20 μL) and 2% (w/v) Ehrlich reagent (4-dimethylaminobenzaldehyde) in glacial acetic acid were mixed in a new clear bottom 384-well plate. This plate was incubated at room temperature for 30 minutes. Absorbance at 490 nm was measured on Envision plate reader.
Compound IC50 values were calculated using counts from unstimulated (no INF-gamma treatment) wells as 100% inhibition. INF-gamma treatment without compound treatment as 0% inhibition.
For the compound “(S)-3-(3-((4-cyano-3- ethoxyphenyl)amino)-4- (ethyl(tetrahydro-2H-pyran- 4-yl)amino)phenyl)-4- methoxybutanoic acid [Example 380]”, the half-inhibitory concentration (IC50) was less than 50 nM.

`CCCN(c1ccc(C(COC)CC(=O)O)cc1Nc1ccc(C#N)cc1)C1CCS(=O)(=O)CC1` (single isomer, unassigned) [Example 182 Enantiomer 2, 3-(3-((4-Cyanophenyl)amino)-4-((1,1-dioxidotetrahydro-2H-thiopyran-4-yl)(propyl)amino)phenyl)-4-methoxybutanoic Acid] came in with an IC50 of more than 50 nM.

On to `CCC(CC(=O)O)c1ccc(N2CCN(C(=O)OC)CC2)c(Nc2ccc(C#N)cc2)c1` (single isomer, unassigned) [Example 668 Enantiomer 2, 3-(3-((4-Cyanophenyl)amino)-4-(4-(methoxycarbonyl)piperazin-1-yl)phenyl)pentanoic Acid], for which the IC50 was more than 50 nM.

Consider `CCN(c1ccc(C(COC)CC(=O)O)cc1Nc1ccc(C#N)cc1)C1CCCOC1` (single isomer, unassigned) [265 E1], for which the IC50 is less than 5 nM.

`COC[C@H](CC(=O)O)c1ccc(N2CCOc3ccccc32)c(Nc2ccc(C#N)cc2)c1` (single isomer, unassigned) [Example 1359] yielded an IC50 of more than 50 nM.

Compound “(R)-3-(4-((1,1-dioxidotetrahydro- 2H-thiopyran-4-yl)(ethyl)amino)- 3-((2-methoxypyrimidin-5- yl)amino)phenyl)-4- isopropoxybutanoic acid [Example 332]” registered an IC50 of more than 50 nM.

Compound `CCN(c1ccc([C@H](COC)CC(=O)O)cc1Nc1ccc2nc(C)sc2c1)C1CCOCC1` (single isomer, unassigned) [Example 414] displayed an IC50 of less than 50 nM.

Compound `CCc1ccc(Nc2cc([C@H](COC)CC(=O)O)ccc2N(CC)C2CCOCC2)cc1` (single isomer, unassigned) [Example 411] displayed an IC50 of less than 5 nM.

Turning to `CCN(c1ccc([C@H](COC)CC(=O)O)cc1Nc1ccc(C#N)c(F)c1)C1CCOCC1` (single isomer, unassigned) [Example 390], the IC50 is less than 5 nM.

In turn, `CCN(c1ccc([C@H](COC)CC(=O)O)cc1Nc1ccc(Cl)cn1)C1CCOCC1` (single isomer, unassigned) [Example 393] had an IC50 of less than 50 nM.

Compound `CCN(c1ccc([C@H](COC)CC(=O)O)cc1Nc1ccc(C#N)c(C(F)(F)F)c1)C1CCOCC1` (single isomer, unassigned) [Example 420] came in with an IC50 of more than 50 nM.

“(S)-3-(4-((1,1-dioxidotetrahydro- 2H-thiopyran-4-yl)(ethyl)amino)- 3-((4-fluorophenyl)amino)phenyl)- 4-isopropoxybutanoic acid [Example 326]” came in with a concentration for half-maximal inhibition (IC50) of less than 50 nM.

`CCN(c1ccc([C@H](COC)CC(=O)O)cc1Nc1ccc(C#N)c(Cl)c1)C1CCOCC1` (single isomer, unassigned) [Example 418] gave an IC50 of less than 50 nM.

“3-(4-((1,1-dioxido- tetrahydro-2H- thiopyran-4-yl) (ethyl)amino)-3- ((4-fluorophenyl) amino)phenyl)-4- isopropoxy- butanoic acid [Example 341]” displayed an IC50 of more than 50 nM.

`COCC(CC(=O)O)c1ccc(N2C[C@@H](C)O[C@@H](C)C2)c(Nc2ccc(Cl)cc2)c1` (single isomer, unassigned) [Example 604] registered an IC50 of more than 50 nM.

In turn, `CCN(c1ccc([C@H](COC)CC(=O)O)cc1Nc1ccc(C#N)c(OC)c1)C1CCOCC1` (single isomer, unassigned) [Example 417] gave an IC50 of less than 50 nM.

Regarding `COCC(CC(=O)O)c1ccc(N2C[C@@H](C)O[C@@H](C)C2)c(NC(=O)Nc2ccc(Cl)cc2F)c1` (single isomer, unassigned) [Example 607], the IC50 is more than 50 nM.

Regarding `CCN(c1ccc(C(COC)CC(=O)O)cc1Nc1ccc(C#N)cc1)C1CCCOC1` (single isomer, unassigned) [264 E2], the 50% inhibitory concentration (IC50) is less than 5 nM.

`COCC(CC(=O)O)c1ccc(N2CCOC(C)(C)C2)c(NC(=O)Nc2ccc(Cl)cc2F)c1` (single isomer, unassigned) [Example 1318 E2, 3-(3-(3-(4-Chloro-2-fluorophenyl)ureido)-4-(2,2-dimethylmorpholino)phenyl)-4-methoxybutanoic Acid] registered a concentration for half-maximal inhibition (IC50) of more than 50 nM.

`CCN(c1ccc([C@H](COC)CC(=O)O)cc1Nc1ncc(F)cn1)C1CCOCC1` (single isomer, unassigned) [Example 396] displayed an IC50 of more than 50 nM.

For the compound “(R)-3-(3-((4-cyano-3- methylphenyl)amino)-4- (ethyl(tetrahydro-2H-pyran-4- yl)amino)phenyl)-4- methoxybutanoic acid [Example 391]”, the IC50 is less than 50 nM.

As to `COCC(CC(=O)O)c1ccc(N2CCOC(C)(C)C2)c(Nc2ccc(Cl)cc2)c1` (single isomer, unassigned) [Example 1315 E2, 3-(3-((4-Chlorophenyl)amino)-4-(2,2-dimethylmorpholino)phenyl)-4-methoxybutanoic Acid], the IC50 is more than 50 nM.

Turning to “(S)-3-(4-((1,1-dioxidotetrahydro- 2H-thiopyran-4-yl)(ethyl)amino)- 3-((2-methoxypyrimidin-5- yl)amino)phenyl)-4- isopropoxybutanoic acid [Example 327]”, the IC50 was more than 50 nM.

Turning to `CCC(CC(=O)O)c1ccc(N2CCOC(C)(C)C2)c(Nc2ccc(Cl)cc2)c1` (single isomer, unassigned) [Example 1319 E2, 3-(3-((4-Chlorophenyl)amino)-4-(2,2-dimethylmorpholino)phenyl)pentanoic Acid], the IC50 was less than 50 nM.

`CCN(c1ccc([C@H](COC)CC(=O)O)cc1Nc1ccc(C#N)c(OCC(F)(F)F)c1)C1CCOCC1` (single isomer, unassigned) [Example 409]: the IC50 was less than 50 nM.

Compound `CCC(CC(=O)O)c1ccc(N(CCOC)C2CCOCC2)c(Nc2ccc(Cl)cc2)c1` (single isomer, unassigned) [Example 1257 E2, 3-(3-((4-Chlorophenyl)amino)-4-((2-methoxyethyl)(tetrahydro-2H-pyran-4-yl)amino)phenyl)pentanoic Acid] had an IC50 of less than 5 nM.

`CCC(CC(=O)O)c1ccc(N2CCNCC2)c(Nc2ccc(C#N)cc2)c1` (single isomer, unassigned) [Example 671 Enantiomer 2, 3-(3-((4-Cyanophenyl)amino)-4-(piperazin-1-yl)phenyl) pentanoic Acid]: the IC50 was more than 50 nM.

With `CCN(c1ccc([C@H](COC)CC(=O)O)cc1Nc1ccc(F)cc1F)C1CCOCC1` (single isomer, unassigned) [Example 402], the IC50 was less than 50 nM.

The compound `CCN(c1ccc([C@H](COC)CC(=O)O)cc1Nc1ccc(F)cc1)C1CCOCC1` (single isomer, unassigned) [Example 412] returned an IC50 of less than 5 nM.

“(S)-3-(4-(ethyl(tetrahydro- 2H-pyran-4-yl)amino)-3-((2- (tetrahydro-2H-pyran-4- yl)pyrimidin-5-yl)amino) phenyl)-4-methoxybutanoic acid [Example 366]” had an IC50 of more than 50 nM.

Compound “(R)-3-(4-((1,1-dioxidotetrahydro- 2H-thiopyran-4-yl)(ethyl)amino)- 3-((4-fluorophenyl)amino)phenyl)- 4-isopropoxybutanoic acid [Example 331]” registered an IC50 of less than 50 nM.

Regarding `CCN(c1ccc([C@H](COC)CC(=O)O)cc1Nc1ccc2c(c1)OC(F)(F)O2)C1CCOCC1` (single isomer, unassigned) [Example 415], the IC50 is less than 5 nM.

Compound `CCN(c1ccc([C@H](COC)CC(=O)O)cc1Nc1ccc(Cl)cc1F)C1CCOCC1` (single isomer, unassigned) [Example 399] gave a concentration for half-maximal inhibition (IC50) of less than 5 nM.

In the case of `CC(CC(=O)O)c1ccc(N2C[C@@H](C)O[C@@H](C)C2)c(NC(=O)Nc2ccc(Cl)cc2F)c1` (single isomer, unassigned) [Example 749 Enantiomer 2], the IC50 was more than 50 nM.

`CCOc1ncc(Nc2cc(C(COC)CC(=O)O)ccc2N(CC)C2CCS(=O)(=O)CC2)cn1` (single isomer, unassigned) [Example 175, 3-(4-((1,1-dioxidotetrahydro-2H-thiopyran-4-yl)(ethyl)amino)-3-((2-ethoxypyrimidin-5-yl)amino)phenyl)-4-methoxybutanoic acid] displayed a half-inhibitory concentration (IC50) of more than 50 nM.

`CCN(c1ccc(C(COC)CC(=O)O)cc1Nc1cnc(OC)nc1)C1CCS(=O)(=O)CC1` (single isomer, unassigned) [Example 168 Enantiomer 2, 3-(4-((1,1-Dioxidotetrahydro-2H-thiopyran-4-yl)(ethyl)amino)-3-((2-methoxypyrimidin-5-yl)amino)phenyl)-4-methoxybutanoic Acid] registered an IC50 of more than 50 nM.

Regarding `CCN(c1ccc([C@H](COC)CC(=O)O)cc1Nc1ccc(C#N)c(C)n1)C1CCOCC1` (single isomer, unassigned) [Example 419], the IC50 was more than 50 nM.

In turn, `CCOc1cc(Nc2cc([C@H](COC)CC(=O)O)ccc2N(CC)C2CCOCC2)ccc1C#N` (single isomer, unassigned) [Example 407] came in with an IC50 of less than 50 nM.

“(R)-3-(4-((1,1-dioxidotetrahydro- 2H-thiopyran-4-yl)(ethyl)amino)- 3-((2-ethoxypyrimidin-5- yl)amino)phenyl)-4- isopropoxybutanoic acid [Example 333]”: the half-maximal inhibitory concentration (IC50) is more than 50 nM.
